Laboratory results: publication PMC2865582 (Journal of medicinal chemistry, 2010)

Target: T1, human GVIA iPLA2 (Homo sapiens, UniProt O60733)
T1 sequence (O60733 1-806): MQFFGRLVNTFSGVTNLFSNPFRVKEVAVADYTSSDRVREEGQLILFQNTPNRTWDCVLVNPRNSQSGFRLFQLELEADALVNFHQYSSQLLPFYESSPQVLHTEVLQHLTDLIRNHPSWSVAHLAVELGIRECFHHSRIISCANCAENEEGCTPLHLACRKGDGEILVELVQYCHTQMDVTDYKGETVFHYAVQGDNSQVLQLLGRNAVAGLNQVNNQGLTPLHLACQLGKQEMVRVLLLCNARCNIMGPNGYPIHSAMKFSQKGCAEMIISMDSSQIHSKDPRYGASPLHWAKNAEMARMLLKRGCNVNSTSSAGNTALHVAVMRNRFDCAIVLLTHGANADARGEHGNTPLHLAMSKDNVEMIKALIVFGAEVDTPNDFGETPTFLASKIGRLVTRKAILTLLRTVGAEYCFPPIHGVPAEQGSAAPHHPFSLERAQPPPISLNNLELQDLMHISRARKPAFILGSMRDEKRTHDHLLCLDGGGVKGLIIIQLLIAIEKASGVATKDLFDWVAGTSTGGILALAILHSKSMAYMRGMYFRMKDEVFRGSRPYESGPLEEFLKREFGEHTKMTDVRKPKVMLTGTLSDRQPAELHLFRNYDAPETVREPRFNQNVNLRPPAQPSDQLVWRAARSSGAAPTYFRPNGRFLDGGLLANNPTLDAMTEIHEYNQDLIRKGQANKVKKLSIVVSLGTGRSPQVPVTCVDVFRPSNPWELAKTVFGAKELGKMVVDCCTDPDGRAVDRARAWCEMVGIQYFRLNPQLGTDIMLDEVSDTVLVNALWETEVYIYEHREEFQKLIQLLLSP
Assay: Mixed micelle-based
Assay type: biochemical

[1] = XI(50) compared with inhibitor 2

Structure (SMILES)	times less potent on GVIA iPLA2 than inhibitor 2 [1] [times]	other results
O=C(CCCOc1ccccc1)C(F)(F)C(F)(F)F [12a, 1,1,1,2,2-Pentafluoro-6-phenoxyhexan-3-one]	2.5	
O=C(/C=C/C=C/c1ccccc1)C(F)(F)C(F)(F)F [compound 10, (4E,6E)-1,1,1,2,2-Pentafluoro-7-phenylhepta-4,6-dien-3-one]	22	
O=C(CCCCc1ccccc1)C(F)(F)C(F)(F)F [compound 2, 1,1,1,2,2-pentafluoro-7-phenylheptan-3-one]		inhibition at 0.091 mole fraction (read-out: GVIA iPLA2 % Inhibition): 99.4 ± 0.1%
O=C(CCCCc1ccc2ccccc2c1)C(F)(F)F [12g, 1,1,1-Trifluoro-6-(naphthalen-2-yl)hexan-2-one]		times higher inhibition of GVIA iPLA2 than inhibitor 2 [1]: 7 times
